The record followed here is patent US20100004159A1, “SUBSTITUTED IMIDAZOLONE DERIVATIVES, PREPARATIONS AND USES” (GENFIT, priority 2006, published 2010).

In general, melting point refers to the temperature of the solid-liquid transition.

Data set [1] addresses T1, angiotensin II AT1 receptor (Oryctolagus cuniculus, UniProt P34976).
T1 construct: tissue CEREP; host or cells: rabbit thoracic aorta rings
T1 sequence (P34976 1-359): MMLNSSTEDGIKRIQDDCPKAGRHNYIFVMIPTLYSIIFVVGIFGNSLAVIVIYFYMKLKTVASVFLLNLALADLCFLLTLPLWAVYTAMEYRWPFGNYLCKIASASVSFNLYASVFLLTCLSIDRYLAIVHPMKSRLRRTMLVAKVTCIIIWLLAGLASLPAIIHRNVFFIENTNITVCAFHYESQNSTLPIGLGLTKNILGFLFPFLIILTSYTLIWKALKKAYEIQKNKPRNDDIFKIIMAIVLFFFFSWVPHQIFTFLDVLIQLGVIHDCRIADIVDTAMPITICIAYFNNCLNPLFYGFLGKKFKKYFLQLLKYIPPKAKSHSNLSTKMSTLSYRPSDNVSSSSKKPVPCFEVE
Put plainly: Ex vivo agonist/antagonist activity on isolated rabbit thoracic aorta rings. As to conditions: 0.3, 3 and 30 μM; for agonist activity (contraction): non-treated rabbit thoracic aorta; for antagonist activity (inhibition of contractile response to angiotensin II): rabbit thoracic aorta previously exposed to angiotensin II 0.003 μM. How it is done: This activity is either agonist or antagonist and was evaluated ex vivo on isolated organs. Agonist activity corresponds to tissue contraction. Antagonist activity corresponds to tissue dilatation.
The ex vivo test was performed at the CEREP (Celle L'Evescault, France (86)) following a protocol based on Pendleton et al. (Pendleton R G et al.,1989). Rabbit thoracic aorta rings with intact endothelium were suspended in baths for organs containing an oxygenated physiologic saline solution (95% O2 and 5% CO2) and preheated (37° C.) having the following composition (mM): NaCl 118.0, KCl 4.7, MgSO4 1.2, CaCl2 2.5, KH2PO4 1.2, NaHCO3 25.0, and glucose 11.0 (pH 7.4).
Benextramine (1 μM), propranolol (1 μM), pyrilamine (1 μM), atropine (1 μM), methysergide (1 μM), and captopril (0.1 μM) were also used in all carried out experiments to block respectively α-adrenergic, β-adrenergic, histaminic H1 muscarinic, and 5-HT2 receptors as well as to prevent peptide degradation. The tissues were bound to a force sensor suitable for isometric tension recording. They were stretched to a resting tension of 4 g, then stabilized for 60 minutes. During the stabilization, they were washed several times and the tension was adjusted. The experiments were carried out using semi-automatic systems of isolated organs with eight organ baths and multichannel data acquisition.
The tissues were exposed to a submaximal concentration of the reference agonist (angiotensin II at 0.003 μM) to verify the response and obtain a control contractile response.
After several washing operations and after having recovered the basal tone, the tissues were exposed to increasing concentrations of compounds according to the invention or the same agonist. The different concentrations were added cumulatively, each one was left in contact with the tissues until a stable response was reached and for a maximum of 30 minutes. If an agonist type response (contraction) was registered, the reference antagonist (Saralasine at 0.01 μM) was tested regarding the highest concentration of the compounds according to the invention to confirm the involvement of the AT1 receptors in the response.
After stabilization of the contraction induced by angiotensin II, increasing concentrations of compounds according to the invention or of the reference antagonist (Saralasine) were added cumulatively. Each concentration was left in contact with the tissues until a stable response was observed and for a maximum of 30 minutes.
The inhibiting effect of the compounds according to the invention on the contraction induced by the angiotensin 11 indicates antagonist activity on AT1 receptors.

The target of data set [2] is T2, hPPARα (Homo sapiens, UniProt Q07869).
T2 construct: DNA fragments amplified by PCR and corresponding to the DEF domains of human PPARα, PPARγ, and PPARδ nuclear receptors; expressed in transfected cells; host or cells: COS-7
T2 sequence (Q07869 239-466 limits assumed): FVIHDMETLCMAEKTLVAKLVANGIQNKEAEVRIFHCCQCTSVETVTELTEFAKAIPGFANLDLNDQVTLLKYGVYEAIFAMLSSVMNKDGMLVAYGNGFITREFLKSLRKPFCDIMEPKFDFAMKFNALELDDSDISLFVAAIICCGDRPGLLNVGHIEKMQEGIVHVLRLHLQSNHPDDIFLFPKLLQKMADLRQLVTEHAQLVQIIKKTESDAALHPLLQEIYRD
Put plainly: Gal4-hPPARα transactivation in COS-7 cells (luciferase). The class given is cell-based. As to conditions: COS-7 cells transfected pGal4-hPPAR, 0.01 to 100 μM. As to the method:
(§1) The activation of PPARs was evaluated in vitro using a monkey kidney fibroblast line (COS-7) by measuring the transcriptional activity of chimeras made up of the DNA binding domain of the Gal4 transcription factor of yeast and of the binding domain to the ligand of the different PPARs. The compounds were tested at doses of between 0.01 and 100 μM on Gal4-PPARα, γ, and δ chimeras.
(§2) COS-7 cells came from ATCC (American type culture collection) and were cultivated in a DMEM medium supplemented with 10% (vol/vol) of fetal calf serum, 100 U/ml of penicillin (Gibco, Paisley, UK) and 2 mM of L-Glutamine (Gibco, Paisley, UK). The cells were incubated at 37° C. under humid atmosphere containing 5% CO2.
(§3) The plasmids Gal4(RE)_TkpGL3, pGal4-hPPARα, pGal4-hPPARγ, pGal4-hPPARδ and pGal4-φ have been described in the literature (Raspe E et al., 1999). The constructions pGal4-hPPARα, pGal4-hPPARγ, and pGal4-hPPARδ were obtained by cloning, in the pGal4-φ vector, DNA fragments amplified by PCR and corresponding to the DEF domains of human PPARα, PPARγ, and PPARδ nuclear receptors.
(§4) The COS-7 cells in suspension were transfected with 150 ng of DNA per well, with a pGal4-PPAR/Gal4(RE)_TkpGL3 ratio of 1/10, in presence of 10% fetal calf serum. The cells were then plated in 96-well plates (4×10^4 cells/well), then incubated for 24 hours at 37° C. Activation with the test compounds was performed for 24 hours at 37° C. in a medium without serum. At the end of the experiment, the cells were lysed and the luciferase activity was determined using the Steady-Lite™ HTS (Perkin Elmert) or the Steady Glow Luciferase kit (Promega), in accordance with the provider's recommendations.
(§5) The compounds according to the invention were tested at doses between 0,01 and 100 μM on the 3 PPAR isoforms. The results obtained are presented in detail under FIG. 1a.

Data set [3] concerns the target T3, hPPARγ (Homo sapiens, UniProt P37231).
T3 construct: DNA fragments amplified by PCR and corresponding to the DEF domains of human PPARα, PPARγ, and PPARδ nuclear receptors; expressed in transfected cells; host or cells: COS-7
T3 sequence (P37231 238-503 limits assumed): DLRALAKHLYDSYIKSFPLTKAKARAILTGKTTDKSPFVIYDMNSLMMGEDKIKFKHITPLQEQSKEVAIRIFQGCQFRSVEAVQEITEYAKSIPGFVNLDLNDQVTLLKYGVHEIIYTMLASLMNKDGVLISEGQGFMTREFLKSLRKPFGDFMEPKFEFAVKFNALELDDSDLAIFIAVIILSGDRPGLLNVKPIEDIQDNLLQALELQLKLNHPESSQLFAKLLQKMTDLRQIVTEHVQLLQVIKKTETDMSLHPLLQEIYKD
Put plainly: Gal4-hPPARγ transactivation in COS-7 cells (luciferase). It counts as cell-based. As to conditions: COS-7 cells transfected pGal4-hPPAR, 0.01 to 100 μM. As to the method: as §1, §2, §3, §4, §5

Data set [4] deals with PPARs target genes. The data set is described as follows: Expression of PPAR target genes by quantitative RT-PCR in db/db mouse tissue. It counts as in vivo. As to conditions: db/db mice, 50 mpk for 28 days. As to the method: Samples of hepatic tissue and adipose epididymal tissue were taken and frozen immediately in liquid nitrogen then conserved at −80° C. for later analysis.
Total RNA was extracted from liver fragments by using a NucleoSpine 96 RNA kit (Macherey Nagel, Hoerdt, France) according to the manufacturer's instructions.
The total RNA of the adipose tissue was extracted from tissue fragments with a method using guanidine thiocyanate. The tissues were briefly homogenized in 5 mL of a lysis buffer (guanidine thiocyanate 4M, EDTA pH8 10 mM, Tris HCl pH 7.5 50 mM and b-mercaptoethanol 1.4%) using polytron. To separate the layers, 500 μL of sodium acetate 2M pH4, 5 mL of phenol, and 2 mL of a mixture of chloroform/isoamylic alcohol (49:1) were added. After centrifugation, the aqueous layer was collected and the RNA was precipitated in the presence of isopropanol. After a second precipitation, the RNA was washed with ethanol 70°, dried, then suspended again in an volume of water free of RNase. A step of purification/DNase I treatment of the RNA was then carried out by using NucleoSpin® 96 RNA kit (Macherey-Nagel) according to the manufacturer's instructions. 1 μg of total RNA (quantified by using the Ribogreen RNA quantification kit (Molecular Probes)) was then reverse-transcribed into cDNA by means of a 1 hour reaction at 37° C. in a total volume of 20 μl containing a buffer 1× (Sigma), 1.5 mM of DTT, 0.18 mM, of dNTPs (Promega), 200 ng of pdN6 (Amersham), 30 U of RNase inhibitor (Sigma), and 1 μl of MMLV-RT (Sigma). The quantitative PCR experiments were carried out using the MyiQ Single-Color Real-Time PCR Detection System (Biorad, Marnes-la-Coquette, France) and were performed using the iQ SYBR Green Supermix kit according to the manufacturer's recommendations, in 96-well plates in 5 μl of a diluted reverse transcription solution at a hybridization temperature of 55° C. Primer pairs specific to the studied genes were used:
The quantity of emitted fluorescence is directly proportional to the quantity of cDNA present at the beginning of the reaction and amplified during the PCR. For each target studied, a range of solutions is performed with successive dilutions of a mixture made up of a few μl of different reverse-transcription solutions. The relative levels of expression of each target are thus determined by using efficiency curves obtained with the points relative to the range.
The expression levels of the genes of interest were then normalized, in the hepatic tissue with respect to the level expression of reference gene 36B4 (whose specific primers are: sense primer: 5′-[…]-3′ (SEQ ID NO: 15) and antisense primer: 5′-[…]-3′ (SEQ ID NO: 16)), and in the adipose tissue with respect to reference gene 18S (whose specific primers are: sense primer: 5′-[…]-3′ (SEQ ID NO: 17) and antisense primer: 5′-[…]-3′ (SEQ ID NO: 18)). The induction factor was then calculated for each sample. The higher the induction factor is, the more the compound promotes gene expression. The final result is represented as the average of the induction values within each experimental group.

`CCCCC1=NC2(CCCC2)C(=O)N1Cc1ccc(-c2cc(OC(C)(C)C(=O)O)ccc2CC)cc1` [Compound 80, 2-butyl-1-[(3′-((1-carboxy-1,1-dimethylmethyl)oxy)-6′-ethyl-biphenyl-4-yl)methyl]-4-spirocyclopentyl-1H-imidazol-5(4H)-one] returned a melting point of 143 °C. In data set [1], the “agonist activity (contraction)” value is “do not induce contraction” and the “antagonist activity (inhibition of contractile response to angiotensin II)” value is “inhibiting effect of the contractile response of the reference agonist”.

In the case of `CCCCC1=NC2(CCCCC2)C(=O)N1Cc1ccc(-c2ccc(OC(C)(C)C(=O)O)cc2)cc1` [Compound 25, 2-butyl-1-[(4′-((1-carboxy-1,1-dimethylmethyl)oxy)biphenyl-4-yl)methyl]-4-spirocyclohexyl-1H-imidazol-5(4H)-one], the melting point was 75 to 77 °C. For the same compound, in data set [2], the “activation of hPPARα (luciferase activity)” value is recorded as “activates only hPPARα”. Further, the “activation of hPPARγ (luciferase activity)” value in data set [3] is on record as “activates only hPPARα”.

With `CCCCC1=NC2(CCCCC2)C(=O)N1Cc1ccc(-c2cccc(OC(C)C(=O)O)c2)cc1` (centres unmarked) [Compound 53], the melting point came out at 85 °C. For the same compound, in data set [1], the “agonist activity (contraction)” value is on record as “do not induce contraction” and the “antagonist activity (inhibition of contractile response to angiotensin II)” value is on record as “inhibiting effect of the contractile response of the reference agonist”.

Regarding `CCCCC1=NC2(CCCC2)C(=O)N1Cc1ccc(-c2ccc(OC(C)(C)C(=O)O)cc2)cc1` [Compound 2, 2-butyl-1-[(4′-((1-carboxy-1,1-dimethylmethyl)oxy)biphenyl-4-yl)methyl]-4-spirocyclopentyl-1H-imidazol-5(4H)-one], the melting point was determined as 180 °C. Moreover, in data set [4], the “hepatic expression of the gene coding for CPT1 b” value is recorded as “significant increase” and the “hepatic expression of the gene coding for PDK-4” value is given as “significant increase”. Moreover, in data set [4] (liver), the “expression of the gene coding for ApoCIII” value is “significant decrease” and the “expression of the gene coding for FBb” value is given as “significant decrease”.
